Experiments:
HepG2 cells [1] = assay: Mechanisms of cell death (annexin V / propidium iodide flow cytometry); type: cell-based, human; conditions: HepG2, 24 h exposure; for Main mechanism of cell death: 4-chloroamphetamine at 0.5 mM; for Concentration causing significant reduction in cell viability (annexin V staining): highest concentration 2 mM
From the text: Annexin V, a Ca^2+-dependent phospholipid-binding protein that has a high affinity for phosphatidylserine, was used to determine the percentage of apoptotic cells. Phosphatidylserine is located in the inner cytoplasmic surface of intact cell membranes; in apoptotic cells, phosphatidylserine is translocated to the outer leaflet of the plasma membrane where annexin V binds to it. To assess the percentage of dead cells composed of necrotic and late apoptotic cells, propidium iodide, a red fluorescent dye not permeable to live and apoptotic cells but able to stain permeable necrotic cells by binding to the nucleic acid in the cell, was used. Briefly, 100,000 HepG2 cells per well were seeded in a 48-well plate and cultured overnight. The following day, the cells were treated with 250 μl of the compounds of interest dissolved in medium at concentrations selected based on ATP depletion and cell membrane disruption. Doxorubicin (0.5 μM) was included as positive control. After incubation for 24 h, the cells were harvested with 0.05% trypsin and washed with phosphate buffered saline (pH = 7.4). […] After 15 min incubation in the dark, the cells were analyzed with a CytoFLEX flow cytometer (Beckman Coulter, IN, USA) gating for 10,000 cells.
(§1) All statistical analyses were performed using GraphPad Prism 7.0c (GraphPad Software, La Jolla, CA, USA). For toxicology assays, differences between control and test drugs were calculated with ANOVA followed by Dunett’s test. p below 0.05 was considered statistically significant. Monoamine uptake data were fit by nonlinear regression to variable slope sigmoidal dose-response curves to assess IC50 values.

HepG2 cells [2] = assay: Cell membrane integrity (ToxiLight BioAssay); type: cell-based, human; conditions: HepG2, 24 h exposure; tested up to 2 mM
Protocol: Cell membrane integrity loss was assessed with the ToxiLight BioAssay Kit (Lonza, Basel, Switzerland) as a marker of cytotoxicity. Briefly, HepG2 cells were seeded in a 96-well plate at a density of 25,000 cells per well. The following day, the cells were treated with 100 μl of the compounds of interest dissolved in medium (0.25, 0.5, 1.0, and 2.0 mM of each drug, and additionally, 0.1 mM of 4-fluoroamphetamine and 4-chloroamphetamine). Triton X-100 (0.5%) was chosen as positive control to induce cell lysis. After 24 h, 50 μl of the ToxiLight assay buffer was added to 20 μl of the supernatant of the drug treatments. After 5 min incubation under shaking, luminescence was measured with a M200 Pro Infinity plate reader (Tecan, Männedorf, Switzerland) and compared to medium control. The amount of viable cells (no cell membrane integrity loss) was calculated in relation to untreated cells and cells lysed with Triton X-100, which were determined to represent 100% and 0% viable cells, respectively.
as §1

HepG2 cells [3] = assay: ATP content (CellTiter-Glo); type: cell-based, human; conditions: HepG2, 24 h exposure
Protocol: The ATP content was assessed with the CellTiter-Glo Luminescent Cell Viability Assay (Promega, Dübendorf, Switzerland). Briefly, HepG2 cells were seeded in a 96-well plate at a density of 25,000 cells per well. The following day, the cells were treated with 100 μl of the test substances dissolved in medium (0.25, 0.5, 1.0, and 2.0 mM of each drug, and additionally, 0.1 mM of 4-fluoroamphetamine and 4-chloroamphetamine). Triton X-100 (0.5%) was chosen as positive control to induce cell lysis. After 24 h incubation, 50 μl of the supernatant was discarded, and 50 μl of CellTiter-Glo reagent was added to each well. The plate was then shaken for 15 min at room temperature to induce cell lysis. Thereafter, luminescence was measured with a M200 Pro Infinity plate reader (Tecan, Männedorf, Switzerland) and compared to medium control.
as §1

HepG2 cells [4] = assay: Mitochondrial superoxide production (MitoSOX); type: cell-based, human; conditions: HepG2, 24 h exposure
Protocol: Briefly, HepG2 cells were seeded in a 96-well plate at a density of 25,000 cells per well. The following day, the cells were treated with 100 μl of the test substances dissolved in medium (0.25, 0.5, 1.0, and 2.0 mM of each drug, and additionally, 0.1 mM of 4-fluoroamphetamine and 4-chloroamphetamine). Amiodarone (50 μM) was included as positive control. After 24 h incubation, 100 μl of MitoSOX reagent (2.5 μM) was added to each well for 10 min at 37°C protected from light. After that, fluorescence was measured at 510/580 nm with a M200 Pro Infinity plate reader (Tecan, Männedorf, Switzerland). The protein content was assessed with the Pierce BCA Protein Assay Kit (Thermo Fisher Scientific, Basel, Switzerland).
as §1

human DAT = target: T1, human DAT (Homo sapiens, UniProt Q01959); assay: Dopamine uptake inhibition in hDAT-transfected HEK 293 cells; type: cell-based
T1 construct: expressed in transfected cells; host or cells: HEK 293 (stably transfected)

HepG2 cells [5] = assay: Cellular oxygen consumption rate (Seahorse XF24); type: cell-based, human; conditions: HepG2, 24 h exposure; for Concentration decreasing maximal respiratory capacity: OCR after FCCP; for Concentration disrupting cellular respiration: investigated range ≤2 mM
Protocol: The cellular oxygen consumption rate (OCR) was measured with a Seahorse XF24 Analyzer (Seahorse Biosciences, North Billerica, MA, USA). Briefly, HepG2 cells were seeded in a poly-D-lysine coated Seahorse XF24 cell culture microplate at a density of 100,000 cells per well. The following day, the cells were treated with the compounds of interest dissolved in 100 μl culture medium. After 24 h incubation, the medium was removed, and the cells were washed twice with pre-warmed and unbuffered DMEM (4 mM L-glutamate, 1 mM pyruvate, 1 g/L glucose, 63.3 mM sodium chloride, pH 7.4). Thereafter, 750 μl of unbuffered DMEM was added to each well, and the plate was incubated in a CO2 free incubator for 40 min at 37°C. The ports of the XF24 assay cartridge were then loaded with oligomycin, trifluoromethoxy carbonylcyanide phenylhydrazone (FCCP), or rotenone at a final assay concentration of 1 μM, and the cartridge was loaded into the Seahorse XF24 Analyzer. First, oligomycin was injected to inhibit mitochondrial phosphorylation, allowing a quantification of proton leak. Second, oxidative phosphorylation was uncoupled from ATP synthesis by FCCP to determine the maximal respiratory capacity of the cells. Third, rotenone was injected to inhibit complex I of the electron transport chain in order to assess for extramitochondrial respiration, which was then subtracted from basal, leak, and maximal respiration. The protein content was determined using sulforhodamine B staining. The cells were fixed with 100 μl trichloroacetic acid (50% [w/v]), added to each well of the assay plate. After 1 h at 4°C, the cells were washed with deionized water and stained with sulforhodamine B (0.4% [w/v], in 1% [v/v] acetic acid). After 20 min, the cells were rapidly washed with 1% (v/v) acetic acid, and the incorporated dye was solubilized with 100 μl of 10 mM TRIS base. The absorbance was then measured at 490 nm.
as §1

human NET = target: T2, human NET (Homo sapiens, UniProt P23975); assay: Norepinephrine uptake inhibition in hNET-transfected HEK 293 cells; type: cell-based
T2 construct: expressed in transfected cells; host or cells: HEK 293 (stably transfected)

human SERT = target: T3, human SERT (Homo sapiens, UniProt P31645); assay: Serotonin uptake inhibition in hSERT-transfected HEK 293 cells; type: cell-based
T3 construct: expressed in transfected cells; host or cells: HEK 293 (stably transfected)
T3 sequence (P31645 whole entry): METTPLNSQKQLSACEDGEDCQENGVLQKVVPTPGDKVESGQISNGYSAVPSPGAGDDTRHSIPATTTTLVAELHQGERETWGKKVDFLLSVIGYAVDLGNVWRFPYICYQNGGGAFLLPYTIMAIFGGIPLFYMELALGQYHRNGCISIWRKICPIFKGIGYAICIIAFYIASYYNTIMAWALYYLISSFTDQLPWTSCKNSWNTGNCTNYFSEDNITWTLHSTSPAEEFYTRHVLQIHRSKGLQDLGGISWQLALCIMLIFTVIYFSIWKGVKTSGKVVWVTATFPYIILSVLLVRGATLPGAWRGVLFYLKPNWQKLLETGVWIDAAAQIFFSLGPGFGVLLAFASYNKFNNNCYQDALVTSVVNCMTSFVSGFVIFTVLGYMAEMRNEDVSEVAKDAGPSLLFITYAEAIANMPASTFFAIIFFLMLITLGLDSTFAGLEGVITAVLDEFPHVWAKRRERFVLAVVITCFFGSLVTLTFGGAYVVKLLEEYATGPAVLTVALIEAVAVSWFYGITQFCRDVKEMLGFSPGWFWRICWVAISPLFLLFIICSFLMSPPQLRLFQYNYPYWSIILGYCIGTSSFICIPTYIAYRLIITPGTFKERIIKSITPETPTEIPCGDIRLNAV

T2 sequence (P23975 whole entry): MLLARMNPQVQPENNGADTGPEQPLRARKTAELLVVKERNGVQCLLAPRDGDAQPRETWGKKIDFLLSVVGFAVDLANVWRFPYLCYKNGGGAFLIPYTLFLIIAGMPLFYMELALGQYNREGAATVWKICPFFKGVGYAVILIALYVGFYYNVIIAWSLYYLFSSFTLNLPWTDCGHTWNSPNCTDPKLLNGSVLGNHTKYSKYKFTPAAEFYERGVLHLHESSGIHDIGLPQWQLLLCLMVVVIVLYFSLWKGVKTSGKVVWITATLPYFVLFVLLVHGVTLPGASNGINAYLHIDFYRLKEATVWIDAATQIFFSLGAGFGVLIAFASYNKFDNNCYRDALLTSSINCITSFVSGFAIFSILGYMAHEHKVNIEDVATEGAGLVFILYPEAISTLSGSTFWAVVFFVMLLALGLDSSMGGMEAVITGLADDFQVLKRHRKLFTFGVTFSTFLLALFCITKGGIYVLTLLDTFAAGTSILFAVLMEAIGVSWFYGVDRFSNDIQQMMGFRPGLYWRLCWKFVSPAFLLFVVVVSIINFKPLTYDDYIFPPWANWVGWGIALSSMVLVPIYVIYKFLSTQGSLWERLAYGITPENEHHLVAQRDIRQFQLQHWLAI
T1 sequence (Q01959 whole entry): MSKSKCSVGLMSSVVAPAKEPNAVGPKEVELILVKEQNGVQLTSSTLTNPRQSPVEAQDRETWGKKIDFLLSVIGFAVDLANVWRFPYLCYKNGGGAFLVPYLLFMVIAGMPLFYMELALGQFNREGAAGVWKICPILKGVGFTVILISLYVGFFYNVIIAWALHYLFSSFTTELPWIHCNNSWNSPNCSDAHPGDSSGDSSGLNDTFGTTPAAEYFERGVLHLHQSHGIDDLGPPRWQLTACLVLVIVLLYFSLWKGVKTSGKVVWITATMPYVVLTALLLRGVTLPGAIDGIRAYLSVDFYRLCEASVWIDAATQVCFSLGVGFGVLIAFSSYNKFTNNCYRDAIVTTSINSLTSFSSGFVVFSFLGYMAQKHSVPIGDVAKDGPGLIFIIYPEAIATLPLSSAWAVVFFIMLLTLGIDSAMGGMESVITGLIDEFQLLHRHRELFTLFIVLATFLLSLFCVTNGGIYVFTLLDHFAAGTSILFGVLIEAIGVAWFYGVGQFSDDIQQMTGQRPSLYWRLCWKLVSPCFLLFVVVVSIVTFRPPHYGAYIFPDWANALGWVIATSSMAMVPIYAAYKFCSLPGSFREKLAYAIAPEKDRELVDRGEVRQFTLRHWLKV

SMILES	Main mechanism of cell death (HepG2 cells [1])	Concentration causing significant reduction in cell viability (annexin V staining) (HepG2 cells [1])	Concentration causing significant cell membrane integrity loss (HepG2 cells [2])	Concentration at which significant depletion of ATP was observed (HepG2 cells [3])	ATP content at 0.5 mM (HepG2 cells [3]; 0.5 mM)	Concentration at which significant increase in mitochondrial superoxide was observed (HepG2 cells [4])	DAT/SERT ratio (human DAT)	IC50 (human DAT)	Concentration decreasing maximal respiratory capacity (HepG2 cells [5])	IC50 (human NET)	IC50 (human SERT)	Concentration showing signs of uncoupling of cellular respiration from ATP synthesis (HepG2 cells [5]; OCR)	Amount of necrotic and apoptotic cells versus control at 2 mM (HepG2 cells [1])	Concentration disrupting cellular respiration (HepG2 cells [5])
CC(N)Cc1ccc(Cl)cc1 (centres unmarked) [4-Chloroamphetamine]	necrosis	500 µM	500 µM	100 µM	almost complete ATP depletion	500 µM	0.14 (0.07–0.25)	3600 nM	100 µM	320 nM	490 nM	–	–	–
CNC(C)C(=O)c1ccc(Cl)cc1 (centres unmarked) [4-Chloromethcathinone, 4-chloromethcathinone]	Apoptosis	1000 µM	2000 µM	1000 µM	–	1000 µM	0.45 (0.25–0.83)	5100 nM	1000 µM	430 nM	2300 nM	1000 µM	–	–
CC(N)Cc1ccc(F)cc1 (centres unmarked) [4-Fluoroamphetamine, 4-fluoroamphetamine]	Apoptosis	1000 µM	2000 µM	500 µM	–	1000 µM	3.6 (1.9–6.5)	3900 nM	1000 µM	150 nM	14000 nM	–	–	–
CNC(C)C(=O)c1ccc(F)cc1 (centres unmarked) [4-Fluoromethcathinone, 4-fluoromethcathinone]	–	> 2000 µM	> 2000 µM	1000 µM	–	2000 µM	5.6 (3.3–9.4)	6600 nM	–	350 nM	37000 nM	–	did not significantly differ from control incubations	> 2000 µM
CC(N)Cc1ccccc1 (centres unmarked) [Amphetamine]	–	–	2000 µM	1000 µM	–	2000 µM	–	–	–	–	–	–	did not significantly differ from control incubations	–
CNC(C)C(=O)c1ccccc1 (centres unmarked) [Methcathinone, methcathinone]	–	> 2000 µM	> 2000 µM	2000 µM	–	2000 µM	34 (20–57)	1600 nM	–	120 nM	54000 nM	–	did not significantly differ from control incubations	> 2000 µM
